Experimental data reported in US8148391B2 (Cephalon, Inc., priority 2006, dated 2012).
Like-named read-outs stand apart in the source and are kept apart here. Blank lines part the entries; values can stand above or below the compound they belong to.

Assays:
[1] = molecular target: T1, baculovirus-expressed ALK (Homo sapiens, UniProt Q9UM73); assay: ALK Kinase Assay (ELISA-type, time-resolved fluorescence); type: biochemical
T1 construct: host or cells: baculovirus expression system
How it was run: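 Plates coated with phospholipase C-γ substrate (10 μg/mL in TBS); reaction started with 30 ng/ml ALK and run 15 min at 37° C. Phosphorylated substrate detected with Eu-N1-labeled PT66 antibody. IC50 from sigmoidal variable-slope fit of percent inhibition vs log concentration.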

[2] = molecular target: T2, c-Met (cytoplasmic domain) (Homo sapiens, UniProt P08581); assay: c-Met Kinase Assay (same methods as for ALK, with modifications); type: biochemical
T2 construct: 10 ng/mL c-Met (cytoplasmic domain, Invitrogen Corporation #PV3143); purchased Invitrogen Corporation PV3143
How it was run: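 Europium-labeled PT66 antibody (Eu-N1) detects substrate phosphorylation on wells coated with phospholipase C-γ at 10 μg/mL. The kinase, the cytoplasmic domain of c-Met at 10 ng/mL, starts the reaction, which proceeds 15 minutes at 37° C.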

[3] = 1 μM ATP (Km level), 30 ng/ml ALK, 37° C., 15 minutes, read-out: ALK Activity (ALK kinase inhibition, IC50 class)
[4] = 1 μM ATP (Km level), 10 ng/mL c-Met, read-out: cMet Activity (c-Met kinase inhibition, IC50 class)
[5] = 1 μM ATP (Km level), read-out: ALK Activity (ALK Kinase Inhibition, IC50)
[6] = 1 μM ATP (Km level), read-out: cMet Activity (c-Met Kinase Inhibition, IC50)
[7] = ALK kinase inhibition, 1 μM ATP (Km level), read-out: ALK Activity
[8] = c-Met kinase inhibition, 1 μM ATP (Km level), read-out: cMet Activity
[9] = ALK kinase inhibition, 1 μM ATP, read-out: ALK Activity
[10] = c-Met kinase inhibition, 1 μM ATP, read-out: cMet Activity

T2 sequence (P08581 956-1390 limits assumed): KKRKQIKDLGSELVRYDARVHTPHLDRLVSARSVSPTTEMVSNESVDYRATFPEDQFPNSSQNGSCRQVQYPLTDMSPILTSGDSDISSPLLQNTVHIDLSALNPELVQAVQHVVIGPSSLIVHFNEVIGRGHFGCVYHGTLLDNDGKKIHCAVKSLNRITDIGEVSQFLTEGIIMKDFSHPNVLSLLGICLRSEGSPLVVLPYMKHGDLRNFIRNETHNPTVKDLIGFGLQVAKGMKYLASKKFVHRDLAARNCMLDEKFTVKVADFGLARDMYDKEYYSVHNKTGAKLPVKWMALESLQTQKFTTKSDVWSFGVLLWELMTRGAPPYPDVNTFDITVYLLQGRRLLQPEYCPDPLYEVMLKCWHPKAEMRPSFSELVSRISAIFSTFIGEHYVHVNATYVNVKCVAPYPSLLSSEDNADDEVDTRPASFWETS
T1 sequence (Q9UM73 19-1620): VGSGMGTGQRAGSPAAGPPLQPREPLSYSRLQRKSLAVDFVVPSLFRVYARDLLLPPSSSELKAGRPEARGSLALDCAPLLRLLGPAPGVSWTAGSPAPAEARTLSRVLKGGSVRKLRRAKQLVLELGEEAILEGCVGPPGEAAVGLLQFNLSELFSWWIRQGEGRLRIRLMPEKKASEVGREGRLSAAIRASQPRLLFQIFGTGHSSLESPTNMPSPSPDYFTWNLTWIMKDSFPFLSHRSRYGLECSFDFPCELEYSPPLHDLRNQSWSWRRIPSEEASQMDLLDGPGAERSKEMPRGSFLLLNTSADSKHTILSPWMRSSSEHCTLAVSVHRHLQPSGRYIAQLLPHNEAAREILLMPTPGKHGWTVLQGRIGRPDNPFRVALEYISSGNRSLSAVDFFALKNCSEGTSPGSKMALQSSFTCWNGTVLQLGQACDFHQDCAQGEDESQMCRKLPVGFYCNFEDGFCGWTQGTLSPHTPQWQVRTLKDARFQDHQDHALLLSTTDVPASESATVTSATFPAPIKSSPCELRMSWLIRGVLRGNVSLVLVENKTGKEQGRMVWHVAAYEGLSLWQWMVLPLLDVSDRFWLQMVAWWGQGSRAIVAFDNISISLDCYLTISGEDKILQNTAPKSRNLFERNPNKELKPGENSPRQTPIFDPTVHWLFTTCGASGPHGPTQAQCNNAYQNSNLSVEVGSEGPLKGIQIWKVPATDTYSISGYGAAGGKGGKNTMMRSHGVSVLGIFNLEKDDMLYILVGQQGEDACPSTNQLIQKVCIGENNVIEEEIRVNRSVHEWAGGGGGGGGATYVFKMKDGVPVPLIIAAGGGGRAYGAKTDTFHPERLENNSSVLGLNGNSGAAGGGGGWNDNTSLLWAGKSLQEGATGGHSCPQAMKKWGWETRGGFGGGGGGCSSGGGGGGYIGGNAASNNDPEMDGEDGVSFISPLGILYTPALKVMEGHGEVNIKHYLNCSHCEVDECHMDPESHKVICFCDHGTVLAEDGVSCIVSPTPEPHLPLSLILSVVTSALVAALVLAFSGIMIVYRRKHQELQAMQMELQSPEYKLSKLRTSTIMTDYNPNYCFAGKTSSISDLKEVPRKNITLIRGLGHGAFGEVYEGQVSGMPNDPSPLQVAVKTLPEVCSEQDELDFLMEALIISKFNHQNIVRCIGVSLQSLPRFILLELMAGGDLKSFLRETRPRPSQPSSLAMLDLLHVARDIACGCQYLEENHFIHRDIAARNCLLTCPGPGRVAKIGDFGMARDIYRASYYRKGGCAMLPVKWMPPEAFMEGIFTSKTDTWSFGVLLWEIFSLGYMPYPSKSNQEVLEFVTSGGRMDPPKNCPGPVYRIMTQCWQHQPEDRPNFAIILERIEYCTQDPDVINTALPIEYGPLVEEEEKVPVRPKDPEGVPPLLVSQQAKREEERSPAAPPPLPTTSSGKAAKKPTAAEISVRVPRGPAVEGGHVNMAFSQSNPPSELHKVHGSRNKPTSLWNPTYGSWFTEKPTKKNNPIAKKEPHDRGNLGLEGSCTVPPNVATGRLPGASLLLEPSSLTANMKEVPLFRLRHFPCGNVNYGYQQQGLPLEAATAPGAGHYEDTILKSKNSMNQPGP

SMILES: CNC(=O)c1cccc(F)c1Nc1nc(Nc2ccc3c(c2)-n2ccnc2CCC3(C)C)ncc1Cl [Example 1270, 2-[5-Chloro-2-(6,6-dimethyl-5,6-dihydro-4H-3,10b-diaza-benz[e]azulen-9-ylamino)-pyrimidin-4-ylamino]-3-fluoro-N-methyl-benzamide]
- IC50 [1, 3]: 0.1 to 1 µM
- IC50 [2, 4]: < 0.1 µM

SMILES: COc1cc2c(cc1Nc1ncc(Cl)c(Nc3ccc(N(C)C)cc3S(=O)(=O)N(C)C)n1)CCN(CC(=O)N(C)C)CC2 [Example 833, 2-{7-[5-Chloro-4-(4-dimethylamino-2-dimethylsulfamoyl-phenylamino)-pyrimidin-2-ylamino]-8-methoxy-1,2,4,5-tetrahydro-benzo[d]azepin-3-yl}-N,N-dimethyl-acetamide]
- IC50 [1, 5]: < 0.1 µM
- IC50 [2, 6]: > 10 µM

SMILES: COc1cccc(C(=O)NCCC#N)c1Nc1nc(Nc2ccc3c(c2)C(C)(C)CCC(=O)N3)ncc1Cl [Example 1061, 2-[5-Chloro-2-(5,5-dimethyl-2-oxo-2,3,4,5-tetrahydro-1H-benzo[b]azepin-7-ylamino)-pyrimidin-4-ylamino]-N-(2-cyano-ethyl)-3-methoxy-benzamide]
- IC50 [1, 3]: > 10 µM
- IC50 [2, 4]: 1 to 10 µM

SMILES: CCN1CCc2cc(Nc3ncc(Cl)c(NC4C5C=CC(C5)C4C(N)=O)n3)c(OC)cc2CC1=O (stereo not drawn) [Example 252, (2-exo,3-exo)-3-[5-Chloro-2-(3-ethyl-8-methoxy-2-oxo-2,3,4,5-tetrahydro-1H-benzo[d]azepin-7-ylamino)-pyrimidin-4-ylamino]-bicyclo[2.2.1]hept-5-ene-2-carboxylic acid amide]
- IC50 [1, 7]: < 0.1 µM
- IC50 [2, 8]: > 10 µM

SMILES: COc1cc2c(cc1Nc1ncc(Cl)c(Nc3ccc(N4CCN(C)CC4)cc3OC)n1)CCN(CC(F)F)CC2 [Example 764, 5-Chloro-N*2*-[3-(2,2-difluoro-ethyl)-8-methoxy-2,3,4,5-tetrahydro-1H-benzo[d]azepin-7-yl]-N*4*-[2-methoxy-4-(4-methyl-piperazin-1-yl)-phenyl]-pyrimidine-2,4-diamine]
- IC50 [1, 5]: < 0.1 µM
- IC50 [2, 6]: > 10 µM

SMILES: CCN1C(=O)CCCc2cc(Nc3ncc(Cl)c(Nc4c(F)cccc4C(=O)NC)n3)c(OC)cc21 [Example 138, 2-[5-Chloro-2-(1-ethyl-8-methoxy-2-oxo-2,3,4,5-tetrahydro-1H-benzo[b]azepin-7-ylamino)-pyrimidin-4-ylamino]-3-fluoro-N-methyl-benzamide]
- IC50 [1, 7]: < 0.1 µM
- IC50 [2, 8]: 1 to 10 µM

SMILES: CCN1CC(=O)Nc2cc(Nc3ncc(Cl)c(Nc4ccc(OC)cc4-n4cccn4)n3)c(OC)cc2C1 [Example 1662, 8-[5-Chloro-4-(4-methoxy-2-pyrazol-1-yl-phenylamino)-pyrimidin-2-ylamino]-4-ethyl-7-methoxy-1,3,4,5-tetrahydro-benzo[e][1,4]diazepin-2-one]
- IC50 [1, 9]: < 0.1 µM
- IC50 [2, 10]: > 10 µM

SMILES: COc1cc2c(cc1Nc1ncc(Cl)c(Nc3cc(C#N)ccc3OC)n1)CCN(CC(=O)N(C)C)CC2 [Example 1149, 2-{7-[5-Chloro-4-(5-cyano-2-methoxy-phenylamino)-pyrimidin-2-ylamino]-8-methoxy-1,2,4,5-tetrahydro-benzo[d]azepin-3-yl}-N,N-dimethyl-acetamide]
- IC50 [1, 3]: < 0.1 µM
- IC50 [2, 4]: 1 to 10 µM

SMILES: COc1c(Nc2ncc(Cl)c(N[C@H]3[C@@H](C(N)=O)[C@@H]4C=C[C@H]3C4)n2)ccc2c1CCC(N1CCCC(O)C1)CC2 (stereo partly drawn) [Example 910, (1S,2S,3R,4R)-3-{5-Chloro-2-[7-(3-hydroxy-piperidin-1-yl)-1-methoxy-6,7,8,9-tetrahydro-5H-benzocyclohepten-2-ylamino]-pyrimidin-4-ylamino}-bicyclo[2.2.1]hept-5-ene-2-carboxylic acid amide]
- IC50 [1, 5]: < 0.1 µM
- IC50 [2, 6]: > 10 µM

SMILES: COc1cc2c(cc1Nc1ncc(Cl)c(Nc3ccc(N(C)C)cc3S(=O)(=O)C(C)C)n1)CCN(CC(=O)N(C)C)CC2 [Example 1187, 2-(7-{5-Chloro-4-[4-dimethylamino-2-(propane-2-sulfonyl)-phenylamino]-pyrimidin-2-ylamino}-8-methoxy-1,2,4,5-tetrahydro-benzo[d]azepin-3-yl)-N,N-dimethyl-acetamide]
- IC50 [1, 3]: < 0.1 µM
- IC50 [2, 4]: > 10 µM

SMILES: Cc1cccc(C(N)=O)c1Nc1nc(Nc2ccc3c(c2)NC(=O)CCC3(C)C)ncc1Cl [Example 1577, 2-[5-Chloro-2-(5,5-dimethyl-2-oxo-2,3,4,5-tetrahydro-1H-benzo[b]azepin-8-ylamino)-pyrimidin-4-ylamino]-3-methyl-benzamide]
- IC50 [1, 9]: 1 to 10 µM
- IC50 [2, 10]: 0.1 to 1 µM

SMILES: CC1(C)CCC(=O)Nc2ccc(Nc3ncc(Cl)c(NC4C5C=CC(C5)C4C(N)=O)n3)cc21 (stereo not drawn) [Example 394, (2-exo,3-exo)-3-[5-Chloro-2-(5,5-dimethyl-2-oxo-2,3,4,5-tetrahydro-1H-benzo[b]azepin-7-ylamino)-pyrimidin-4-ylamino]-bicyclo[2.2.1]hept-5-ene-2-carboxylic acid amide]
- IC50 [1, 7]: < 0.1 µM
- IC50 [2, 8]: 0.1 to 1 µM

SMILES: CNC(=O)c1ccccc1Nc1nc(Nc2ccc3c(c2)CN(CCOC)CCS3)ncc1Cl [Example 522, 2-{5-Chloro-2-[8-(2-methoxy-ethyl)-6,7,8,9-tetrahydro-5-thia-8-aza-benzocyclohepten-2-ylamino]-pyrimidin-4-ylamino}-N-methyl-benzamide]
- IC50 [1, 5]: < 0.1 µM
- IC50 [2, 6]: 0.1 to 1 µM

SMILES: CNC(=O)c1ccccc1Nc1nc(Nc2ccc3c(c2)CNCCS3)ncc1Cl [Example 516, 2-[5-Chloro-2-(6,7,8,9-tetrahydro-5-thia-aza-benzocyclohepten-2-ylamino)-pyrimidin-4-ylamino]-N-methyl-benzamide]
- IC50 [1, 5]: < 0.1 µM
- IC50 [2, 6]: < 0.1 µM

SMILES: O=C1Cc2ccc(Nc3ncc(Cl)c(Nc4ccccc4-n4cccn4)n3)cc2CCN1 [Example 1813, 7-[5-Chloro-4-(2-pyrazol-1-yl-phenylamino)-pyrimidin-2-ylamino]-1,3,4,5-tetrahydro-benzo[d]azepin-2-one]
- IC50 [1, 9]: 1 to 10 µM
- IC50 [2, 10]: < 0.1 µM

Second part, the compound after the results:

- IC50 [1, 9]: < 0.1 µM
- IC50 [2, 10]: 1 to 10 µM
SMILES: COc1cc2c(cc1Nc1ncc(Cl)c(Nc3ccccc3S(=O)(=O)N3CC[C@@H](O)C3)n1)CCN(CC(C)(C)O)CC2 [Example 1561, (R)-1-(2-{5-Chloro-2-[3-(2-hydroxy-2-methyl-propyl)-8-methoxy-2,3,4,5-tetrahydro-1H-3-benzazepin-7-ylamino]-pyrimidin-4-ylamino}-benzenesulfonyl)-pyrrolidin-3-ol]

- IC50 [1, 7]: < 0.1 µM
- IC50 [2, 8]: 1 to 10 µM
SMILES: CC(C)(F)CN1CCc2ccc(Nc3ncc(Cl)c(N[C@@H]4CCCC[C@H]4NS(C)(=O)=O)n3)cc2CC1 [Example 40, N-((1R,2R)-2-{5-Chloro-2-[3-(2-fluoro-2-methyl-propyl)-2,3,4,5-tetrahydro-1H-benzo[d]azepin-7-ylamino]-pyrimidin-4-ylamino}-cyclohexyl)-methanesulfonamide]

- IC50 [1, 7]: < 0.1 µM
- IC50 [2, 8]: 1 to 10 µM
SMILES: COc1cc(N2CCOCC2)ccc1Nc1nc(Nc2ccc3c(c2)CCC(=O)CC3)ncc1Cl [Example 175, 2-[5-Chloro-4-(2-methoxy-4-morpholin-4-yl-phenylamino)-pyrimidin-2-ylamino]-5,6,8,9-tetrahydro-benzocyclohepten-7-one]

- IC50 [1, 5]: < 0.1 µM
- IC50 [2, 6]: 1 to 10 µM
SMILES: CCN1CCN(CC)c2cc(Nc3ncc(Cl)c(N[C@H]4[C@@H](C(N)=O)[C@@H]5C=C[C@H]4C5)n3)ccc2C1 [Example 720, (1S,2S,3R,4R)-3 [5-Chloro-2-(1,4-diethyl-2,3,4,5-tetrahydro-1H-1,4-benzodiazepin-8-ylamino)-pyrimidin-4ylamino]-bicyclo[2.2.1]hept-5-ene-2-carboxylic acid amide]

- IC50 [1, 5]: < 0.1 µM
- IC50 [2, 6]: < 0.1 µM
SMILES: CNC(=O)c1ccccc1Nc1nc(Nc2ccc3c(c2)CCC(N2CCOCC2)CC3)ncc1C(F)(F)F (stereo not shown) [Example 923, N-Methyl-2-[2-(7-morpholin-4-yl-6,7,8,9-tetrahydro-5H-benzocyclohepten-2-ylamino)-5-trifluoromethyl-pyrimidin-4-ylamino]-benzamide]

- IC50 [1, 3]: < 0.1 µM
- IC50 [2, 4]: 0.1 to 1 µM
SMILES: CC(C)S(=O)(=O)c1ccccc1Nc1nc(Nc2ccc3c(c2)CCC(O)CC3)ncc1Cl (stereo not shown) [Example 1037, 2-{5-Chloro-4-[2-(propane-2-sulfonyl)-phenylamino]-pyrimidin-2-ylamino}-6,7,8,9-tetrahydro-5H-benzocyclohepten-7-ol]

- IC50 [1, 5]: < 0.1 µM
- IC50 [2, 6]: 1 to 10 µM
SMILES: CC(=O)OCCN1CCSc2ccc(Nc3ncc(Cl)c(N[C@@H]4CCCC[C@H]4NS(C)(=O)=O)n3)cc2C1 [Example 526, Acetic acid 2-{2-[5-chloro-4-((1R,2R)-2-methanesulfonylamino-cyclohexylamino)-pyrimidin-2-ylamino]-6,7-dihydro-9H-5-thia-8-aza-benzocyclohepten-8-yl}-ethyl ester]

- IC50 [1, 5]: < 0.1 µM
- IC50 [2, 6]: > 10 µM
SMILES: COc1cc2c(cc1Nc1ncc(Cl)c(Nc3ccc(N4CCOCC4)cc3S(=O)(=O)N(C)C)n1)CCN(CC(=O)N(C)C)CC2 [Example 834, 2-{7-[5-Chloro-4-(2-dimethylsulfamoyl-4-morpholin-4-yl-phenylamino)-pyrimidin-2-ylamino]-8-methoxy-1,2,4,5-tetrahydro-benzo[d]azepin-3-yl}-N,N-dimethyl-acetamide]
